From patent US20070280919A1, “Produce-treatment composition and method for treatment of fresh produce” (priority 2006, published 2007) come the findings set out here.

In this assay the test system is green mold (P. digitatum). Kind of assay: In vivo efficacy test on inoculated fruit, green mold incidence (FIG. 1). Details: species or system Penicillium digitatum. The settings on record: fruit puncture-inoculated with P. digitatum, imazalil at 0.1%. How it is done: In vivo efficacy tests for the formulation of Table 7 were carried out on Fallglo tangerines, pineapples, and Valencia oranges inoculated with Penicillium digtatum using a puncture method, in which the fruit was punctured with the tip of a 1 mm×1 mm probe that had been dipped into the inoculum solution (1×10^6 fungal spores/ml). The fruit was then subject to either a dip treatment procedure or a packingline dip treatment procedure twenty to twenty-four hours after inoculation. The dip treatment procedure involved dipping the inoculated fruit into the composition for one (1) minute. The packingline dip treatment procedure involved treating the fruit with suspensions or wax containing the produce-treatment composition using a non-recovery drip system through a simulated commercial packing line. Fruits were rotated on brush beds and contacted with chemicals for 15 to 20 seconds, and then dried at 50-54° C. for 1-2 minutes. In both procedures, the treated fruit was incubated at 21° C. with 95% relative humidity. FIG. 1 depicts a bar graph reporting the efficacy of the produce-treatment composition of Table 7 to green mold (P. digitatum), and comparing the results to those of a control (distilled water) and 0.1% imazalil. The inventive formulation reduced green-mold incidences to […], relative to untreated produce. […]

For the compound `C=CCOC(Cn1ccnc1)c1ccc(Cl)cc1Cl` (centres unmarked) [imazalil], the green-mold incidences (treated 20-24 h later, incubated at 21° C., 95% RH) was determined as 51%. For the setting “relative to untreated produce”, the “reduction of green-mold incidences” value is recorded as 49%.
